Measured values: patent US10961187B2, “Substituted N-acetyl-L-cysteine derivatives and related compounds” (Promentis Pharmaceuticals, Inc., priority 2013, dated 2021)

How the values were obtained:
[1] = Brain levels of glutathione following oral administration; type: in vivo; details: C57BL/6 mice, 100 mg/kg oral, 4 hours; for glutathione in the brain: brain tissue
Protocol: A compound of the invention was administered orally to C57BL/6 mice at either 10 or 100 mg/kg. Brain samples were collected at 0.25, 0.50, 1, 2 and 4 hours following the oral administration. Levels of NAC and glutathione were quantified in the brain samples using liquid chromatography-mass spectrometry (LC-MS/MS).

[2] = test system: mixed cortical cell cultures containing glial and neuronal cells; experiment: In vitro thiol experiment: intracellular cysteine levels; type: cell-based, mice; details: for intracellular cysteine concentration: raw concentration in collected samples
Protocol: To further resolve by what process the inhibition of ^14C-cystine uptake is occurring intracellular cysteine levels were determined.
Mixed cortical cell cultures containing glial and neuronal cells were prepared from fetal (15-16 day gestation) mice as previously described. (Lobner D, “Comparison of the LDH and MTT assays for quantifying cell death: validity for neuronal apoptosis?,” J. Neurosci. Methods, 96(2): 147-152 (Mar. 15, 2000)). Dissociated cortical cells were plated on 24-well plates coated with poly-D-lysine and laminin in Eagles' Minimal Essential Medium (MEM, Earle's salts, supplied glutamine-free) supplemented with 5% heat-inactivated horse serum, 5% fetal bovine serum, 2 mM glutamine and glucose (total 21 mM). Cultures were maintained in humidified 5% CO2 incubators at 37° C. Mice were handled in accordance with a protocol approved by our institutional animal care committee and in compliance with the Public Health service Policy on Humane Care and Use of Laboratory Animals.
Mixed cortical cell cultures, 14 days in vitro (this allows for a confluent layer of astrocytes to form and the neurons to generate a complex network of axons and dendrites), were washed into bicarbonate buffered salt solution. After 1 hour, 3, 10, 30, 100 μM of Pro-4047 or Pro-4051 was added and the cells were incubated for 30 or 90 minutes, after which the cells were thoroughly washed and the collected in 250 μL of aqueous mobile phase (50 mM citric acid, 10 mM octanesulfonic acid, pH 2.8) was added, after 10 minutes at 37° C. the cells were scraped from the plates and transferred to 1.5 mL tubes for analysis.
Samples were then sonicated with a Fisher Scientific 60 Sonic Dismembrator. One fraction of this homogenate was analyzed with the Pierce BCA (bicinchoninic acid) method to determine protein concentration. The other fraction was filtered using 3 K molecular weight cutoff, polyethersulfone centrifugal protein filters, and analyzed for thiol content using HPLC (ALF-115 column, 150×1.0 mm, 3 μm C18 [Pro-2023 analysis utilized a Phenomenex Kinetex 2.6 μM, C18, 100 A, 150×2.1 mm and Pro-4047 analysis utilized a Phenomenex Kinetex X-B, C18, 100 A, 2.6 μm, 150×4.4 mm]; mobile phase: 50 mM citric acid, 10 mM octanesulfonic acid, 2% acetonitrile, pH 2.8, 50 μL/min flow rate [Pro-2023 analysis utilized a 100 μL/min flow rate and Pro-4047 analysis utilized 1% acetonitrile and 0.4 mL/min flow rate] with electrochemical detection (Decade II, Au working electrode, Flex Cell HyREF, 0.55V, Antec Leyden, Netherlands [Pro-4047 analysis utilized a Magic Diamond working electrode and 1.8V]).
When the intracellular thiol assay was initiated, all data was normalized to protein concentration. […] The data presented herein represents the raw cysteine concentrations in the collected samples. […] Pro-4006 at 10 μM increases intracellular cysteine concentration to 0.07 μM at 30 minutes (approximately 3.5 times that of the control; FIG. 11). […] Pro-4047 at 300 μM increases intracellular cysteine concentration to 0.74 μM at 90 minutes (approximately 4.9 times that of the control; FIG. 13). […] Thus, based on the 3 in vitro experiments it is apparent that Pro-2023, Pro-4006, Pro-4011, Pro-4047, Pro-4051 and Pro-4051a behave as effective cysteine prodrugs.

SMILES	glutathione in the brain, times that of the vehicle [1]	glutathione in the brain [1]	intracellular cysteine, times that of the control ([2]; 100 μM compound, 30 minutes)	intracellular cysteine concentration ([2]; 100 μM compound, 30 minutes) [µM]	intracellular cysteine, times that of the control ([2]; 300 μM compound, 90 minutes)	intracellular cysteine concentration ([2]; 300 μM compound, 90 minutes) [µM]	intracellular cysteine, times that of the control ([2]; 100 μM compound, 90 minutes)	intracellular cysteine concentration ([2]; 100 μM compound, 90 minutes) [µM]
CC(=O)N[C@@H](CSC(=O)c1ccc(C)cc1)C(=O)O [Pro-2023, (2R)-2-Acetylamino-3-(4-methyl-benzoylsulfanyl)-propionic acid]	about 2 times	about 200 nmol/g	approximately 1.6 times	0.16				
CCOC(=O)[C@H](CSC(=O)C1CSC(=O)N1)NC(C)=O (stereo partly drawn) [Pro-4047, Ethyl (2R)-2-acetamido-3-(2-oxo-1,3-thiazolidine-4-carbonylsulfanyl) propanoate]					approximately 4.9 times	0.74		
CCOC(=O)[C@H](CSC(=O)c1ccc(C)cc1)NC(C)=O [Pro-4051, Ethyl (2R)-2-acetamido-3-(4-methylbenzoylsulfanyl)propanoate]	about 1.05 times	about 1960 nmol/g					approximately 4 times	0.36
